Assay results: US8440724B2, “Inhibiting neurotransmitter reuptake” (Mayo Foundation for Medical Education and Research, priority 2008, dated 2013)
Like-named read-outs stand apart in the source and are kept apart here.

Experiments:
Male Sprague-Dawley rats = test: Forced swim test in rats; assay type: in vivo, rat; settings: 5 mg/kg IP; for Antidepressant activity in forced swim test compared with imipramine (15 mg/kg IP): FIG. 12A
Method: When rats are placed in a cylinder of water from which they cannot escape, they will remain immobile in the water for the majority of the test.
Water was changed between trials, and the procedure involved a pretest and a 5-minute test separated by 24 hours. During the pretest, rats (adapted to the experimental room for no less than one hour) were placed in the cylinder for 15 minutes. Following this initial exposure, the rats were dried with towels and transferred to a “drying cage” situated under a warming lamp. […] The following day, rats were transferred to the experimental room and acclimated for at least one hour.
The rat was considered immobile when floating motionless or making only those movements necessary to keep its head above the surface of the water. Scores for each behavior (swimming or immobility) were expressed as total counts per 5-minute session. Statistical analysis was performed using ANOVA followed by the Tukey test for post-hoc comparisons.

[1] = target: T1, human dopamine transporter (hDAT) (Homo sapiens, UniProt Q01959); test: Radioligand binding to cloned hDAT, [3H]WIN35428, HEK-293 cell membranes
T1 construct: expressed in transfected cells; host or cells: HEK-293, stably transfected
T1 sequence (Q01959 whole entry): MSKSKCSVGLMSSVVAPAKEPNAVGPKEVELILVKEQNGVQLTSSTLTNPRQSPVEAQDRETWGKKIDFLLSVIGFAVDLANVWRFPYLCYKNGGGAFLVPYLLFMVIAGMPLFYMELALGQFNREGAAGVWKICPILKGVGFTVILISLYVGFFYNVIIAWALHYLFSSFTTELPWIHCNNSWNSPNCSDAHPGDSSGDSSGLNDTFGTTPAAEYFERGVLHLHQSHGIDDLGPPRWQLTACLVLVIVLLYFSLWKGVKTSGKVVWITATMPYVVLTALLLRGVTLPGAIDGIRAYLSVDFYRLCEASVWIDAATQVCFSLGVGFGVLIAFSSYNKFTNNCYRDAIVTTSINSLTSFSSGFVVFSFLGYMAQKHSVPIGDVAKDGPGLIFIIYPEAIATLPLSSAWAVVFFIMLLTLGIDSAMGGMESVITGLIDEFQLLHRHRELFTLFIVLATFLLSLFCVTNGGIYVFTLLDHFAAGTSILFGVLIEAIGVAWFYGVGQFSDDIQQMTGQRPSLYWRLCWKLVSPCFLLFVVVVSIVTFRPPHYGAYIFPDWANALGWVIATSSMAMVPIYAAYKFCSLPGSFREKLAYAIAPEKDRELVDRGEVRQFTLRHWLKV
Method: (§1) HEK-293 cells expressing the recombinant hSERT or hDAT were incubated with Dulbecco's modified Eagles medium (MEM) supplemented with 0.1 mM nonessential amino acid solution for MEM, 5% v/v fetal bovine serum and 1 U/mL penicillin/streptomycin solution. Cells expressing the hNET transporter were incubated with Dulbecco's modified Eagles medium supplemented with 10% v/v fetal bovine serum and 100 U/mL penicillin/streptomycin solution and 2 mM L-glutamine. The cells were grown until 70-80% confluent on 175 cm^2 flasks in a humidified 10% CO2/90% air environment at 37° C., with the selecting antibiotic Geneticin sulfate at 250 μg/mL. The cells were incubated in 10% CO2, 90% air at 37° C. and 100% humidity.
(§2) Cell membranes containing hSERT, hNET, or hDAT were prepared from the cell lines to assay ligand binding for each of the transporters. […] The washed cells were incubated for 5 minutes at 37° C. in 10 mL solution 1 containing 100 mM ethylene glycol-bis N,N,N′,N′-tetraacetic acid (EGTA). The cells were then scraped from the flask surface with a rubber spatula, placed into a centrifuge tube, and collected by centrifugation at 1000×g for 5 minutes at 4° C. The resulting supernatant was discarded, and the cell pellet was resuspended in 0.5 to1.0 mL of the appropriate binding buffer (described below). The resuspended cell pellet was homogenized using a Polytron for 10 seconds at setting 6. The resulting homogenate was centrifuged at about 36,000×g for 10 minutes at 4° C. The supernatant was discarded, and the pellet was resuspended in the same volume of the appropriate binding buffer and centrifuged again. The supernatant was discarded, and the final pellet containing cell membranes was resuspended in the appropriate binding buffer and stored at −80° C. until use.
To assess binding to the cloned hDAT, cells expressing hDAT were homogenized in 50 mM Tris-HCl with 120 mM NaCl (pH 7.4). The binding reaction contained 15 μg cell membrane protein, 1 nM [^3H]WIN35428 (WIN35428, [N-methyl-^3H], specific activity 85.9 Ci/mmol; PerkinElmer, Boston, Mass.), and varying concentrations of either unlabeled WIN35428 or the test compound. A reaction to determine non-specific binding contained 15 μg cell membrane protein, 1 nM [^3H]WIN35428, and 10 μM final concentration of unlabeled WIN35428. The reactions were incubated at 22° C. for 1 hour. Following incubation, the reactions were terminated by rapid filtration through separate GF/B filter strips pretreated with 0.2% polyethylenimine in a 48-well Brandel cell harvester. The cell membrane-containing filter strips were then rinsed five times with ice-cold 0.9% NaCl. After rinsing, individual filters were cut from the strip and placed in a scintillation vial containing 6.5 mL of Redi-Safe (Beckman-Coulter, Fullerton, Calif.).
(§3) The program was modified to calculate the Hill coefficient (nH). Data are presented as geometric mean±S.E.M. of at least three independent experiments. One-component models and two-component models were compared using the root mean square error of each fit and the F test.

hERG = hERG (Homo sapiens, UniProt Q12809); test: hERG assay: block of rubidium ion (Rb+) efflux from cells expressing hERG; settings: for Blocking of hERG channel compared with PRC200-SS: in words
hERG, sequence (Q12809 whole entry): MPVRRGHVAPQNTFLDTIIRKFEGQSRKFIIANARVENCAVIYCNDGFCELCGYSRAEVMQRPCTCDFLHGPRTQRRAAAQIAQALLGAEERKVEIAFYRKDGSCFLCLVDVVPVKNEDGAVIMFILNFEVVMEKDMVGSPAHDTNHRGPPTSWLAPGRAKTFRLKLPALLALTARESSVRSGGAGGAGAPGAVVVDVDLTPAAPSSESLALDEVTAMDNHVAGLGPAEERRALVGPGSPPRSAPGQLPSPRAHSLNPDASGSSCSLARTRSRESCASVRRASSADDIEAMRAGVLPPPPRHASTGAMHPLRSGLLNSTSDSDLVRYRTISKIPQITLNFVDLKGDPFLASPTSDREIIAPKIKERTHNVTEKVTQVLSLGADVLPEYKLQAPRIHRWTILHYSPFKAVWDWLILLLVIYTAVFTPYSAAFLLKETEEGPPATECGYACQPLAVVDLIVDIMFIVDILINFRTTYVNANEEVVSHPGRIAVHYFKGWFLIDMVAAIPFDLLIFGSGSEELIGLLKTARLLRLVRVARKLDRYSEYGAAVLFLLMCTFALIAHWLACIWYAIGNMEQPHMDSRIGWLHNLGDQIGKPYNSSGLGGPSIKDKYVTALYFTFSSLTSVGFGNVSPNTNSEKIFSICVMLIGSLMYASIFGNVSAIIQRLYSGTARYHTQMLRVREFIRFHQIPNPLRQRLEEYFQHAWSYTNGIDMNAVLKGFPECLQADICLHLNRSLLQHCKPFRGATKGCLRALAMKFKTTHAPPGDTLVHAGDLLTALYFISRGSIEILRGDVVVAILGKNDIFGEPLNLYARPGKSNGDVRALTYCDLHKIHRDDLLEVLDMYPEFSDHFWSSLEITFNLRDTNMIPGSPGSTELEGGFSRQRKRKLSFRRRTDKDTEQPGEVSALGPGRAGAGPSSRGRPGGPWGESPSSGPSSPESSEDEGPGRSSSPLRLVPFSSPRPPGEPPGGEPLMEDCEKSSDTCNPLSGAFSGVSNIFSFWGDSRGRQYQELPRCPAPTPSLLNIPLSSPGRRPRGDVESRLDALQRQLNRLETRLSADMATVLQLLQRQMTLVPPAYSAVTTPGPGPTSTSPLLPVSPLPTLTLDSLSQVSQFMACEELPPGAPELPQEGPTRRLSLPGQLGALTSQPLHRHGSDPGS
Method: Human “ether-a-go-go” (hERG) is an ion channel. Blockade of this channel can be predictive of causing cardiac arrhythmias in humans. hERG assays were performed to measure the ability of a compound to block rubidium ion (Rb^+) efflux from cells expressing hERG. Cells were pre-loaded with Rb^+, incubated with test compound, and then exposed to a buffer that opens the channel and allows the efflux of ions. Compounds as powder were dissolved in 100% DMSO to prepare 100 mM stock solutions. […] The stocks were stored at 23° C.
The range of doses for the test compounds was 30 nM through 100,000 nM.

[2] = target: T2, human serotonin transporter (hSERT) (Homo sapiens, UniProt P31645); test: Radioligand binding to cloned hSERT, [3H]citalopram, HEK-293 cell membranes
T2 construct: expressed in transfected cells; host or cells: HEK-293, stably transfected
T2 sequence (P31645 whole entry): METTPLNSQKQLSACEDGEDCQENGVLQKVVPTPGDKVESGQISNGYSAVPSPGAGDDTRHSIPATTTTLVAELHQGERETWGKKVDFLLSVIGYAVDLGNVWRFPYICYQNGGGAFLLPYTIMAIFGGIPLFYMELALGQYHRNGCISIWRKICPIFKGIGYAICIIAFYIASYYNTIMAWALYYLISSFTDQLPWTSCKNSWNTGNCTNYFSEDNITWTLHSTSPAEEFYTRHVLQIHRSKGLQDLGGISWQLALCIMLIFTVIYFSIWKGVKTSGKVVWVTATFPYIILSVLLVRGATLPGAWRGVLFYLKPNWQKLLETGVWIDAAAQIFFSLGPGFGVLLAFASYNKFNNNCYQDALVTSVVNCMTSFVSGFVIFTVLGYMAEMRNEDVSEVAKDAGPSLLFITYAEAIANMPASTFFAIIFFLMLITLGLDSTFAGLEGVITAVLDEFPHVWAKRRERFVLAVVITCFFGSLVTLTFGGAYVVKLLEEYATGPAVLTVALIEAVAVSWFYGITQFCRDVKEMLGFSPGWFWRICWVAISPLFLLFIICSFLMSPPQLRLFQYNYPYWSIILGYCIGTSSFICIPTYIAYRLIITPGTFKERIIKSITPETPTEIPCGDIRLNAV
Method: as §1, §2
Radioligand binding assays for the indicated transporters were performed as follows. To assess binding to the cloned hSERT, cells expressing hSERT were homogenized in 50 mM Tris-HCl with 120 mM NaCl and 5 mM KCl (pH 7.4). The binding reaction consisted of 10 μg cell membrane protein, […] [^3H]citalopram (citalopram, [N-methyl-^3H], specific activity 79.0 Ci/mmol; PerkinElmer, Boston, Mass.), and varying concentrations of either unlabeled citalopram or the test compound. A reaction to determine non-specific binding consisted of 10 μg cell membrane protein, 0.5 nM [^3H]citalopram, and 1 μM final concentration of unlabeled citalopram. The reactions were incubated at 22° C. for 60 minutes. Following incubation, the reactions were terminated by rapid filtration through separate GF/B filter strips pretreated with 0.2% polyethylenimine in a 48-well Brandel cell harvester. The cell membrane-containing filter strips were then rinsed five times with ice-cold 0.9% NaCl. After rinsing, individual filters were cut from the strip and placed in a scintillation vial containing 6.5 mL of Redi-Safe (Beckman-Coulter, Fullerton, Calif.).
as §3

[3] = target: T3, human norepinephrine transporter (hNET) (Homo sapiens, UniProt P23975); test: Radioligand binding to cloned hNET, [3H]nisoxetine, HEK-293 cell membranes
T3 construct: expressed in transfected cells; host or cells: HEK-293, stably transfected
T3 sequence (P23975 whole entry): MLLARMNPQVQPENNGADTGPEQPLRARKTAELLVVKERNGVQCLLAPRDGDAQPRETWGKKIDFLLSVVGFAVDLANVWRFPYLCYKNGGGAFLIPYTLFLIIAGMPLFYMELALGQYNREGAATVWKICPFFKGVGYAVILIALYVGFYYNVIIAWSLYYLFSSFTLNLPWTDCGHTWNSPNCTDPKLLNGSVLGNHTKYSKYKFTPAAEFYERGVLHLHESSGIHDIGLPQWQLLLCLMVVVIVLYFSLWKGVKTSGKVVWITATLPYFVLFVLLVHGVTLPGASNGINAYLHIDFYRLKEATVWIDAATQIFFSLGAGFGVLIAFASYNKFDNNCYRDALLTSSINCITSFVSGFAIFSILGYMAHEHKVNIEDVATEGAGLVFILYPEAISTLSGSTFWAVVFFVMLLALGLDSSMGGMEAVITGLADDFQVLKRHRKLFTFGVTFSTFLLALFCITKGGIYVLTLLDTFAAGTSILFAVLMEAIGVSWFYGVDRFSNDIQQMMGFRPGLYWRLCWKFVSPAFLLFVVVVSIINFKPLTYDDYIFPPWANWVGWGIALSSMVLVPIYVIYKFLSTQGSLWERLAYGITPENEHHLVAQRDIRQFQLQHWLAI
Method: as §1, §2
To assess binding to the cloned hNET, cells expressing hNET were homogenized in 50 mM Tris-HCl with 300 mM NaCl and 5 mM KCl (pH 7.4). The binding reaction consisted of 5 μg cell membrane protein, 0.5 nM [^3H]nisoxetine (nisoxetine HCl, [N-methyl-^3H], specific activity 82.0 Ci/mmol; Amersham, Arlington Hts., Ill.), and varying concentrations of either unlabeled nisoxetine or the test compound. A reaction to determine non-specific binding consisted of 5 μg cell membrane protein, 0.5 nM [^3H]nisoxetine, and 1 μM final concentration of unlabeled nisoxetine. The reactions were incubated at 22° C. for 60 minutes. Following incubation, the reactions were terminated by rapid filtration through separate GF/B filter strips pretreated with 0.2% polyethylenimine in a 48-well Brandel cell harvester. The cell membrane-containing filter strips were then rinsed five times with ice-cold 0.9% NaCl. After rinsing, individual filters were cut from the strip and placed in a scintillation vial containing 6.5 mL of Redi-Safe (Beckman-Coulter, Fullerton, Calif.).
as §3

hSERT, hNET, hDAT = test: Human transporter binding: rank order and range of potency over the three transporters; settings: for Potency (rank-order of potency of binding; S = hSERT, N = hNET, D = hDAT): from KD values; for Potency Range (difference between most potent and least potent binding): ratio of KD over hSERT, hNET, hDAT
Excerpt: as §3

CYP2D6 = target: T4, CYP2D6 (Homo sapiens, UniProt P10635); test: CYP2D6 inhibition, CYP2D6/AMMC kit (BD Biosciences), fluorescent substrate; assay type: in vitro ADME
T4 construct: purchased BD Biosciences 459200
T4 sequence (P10635 whole entry): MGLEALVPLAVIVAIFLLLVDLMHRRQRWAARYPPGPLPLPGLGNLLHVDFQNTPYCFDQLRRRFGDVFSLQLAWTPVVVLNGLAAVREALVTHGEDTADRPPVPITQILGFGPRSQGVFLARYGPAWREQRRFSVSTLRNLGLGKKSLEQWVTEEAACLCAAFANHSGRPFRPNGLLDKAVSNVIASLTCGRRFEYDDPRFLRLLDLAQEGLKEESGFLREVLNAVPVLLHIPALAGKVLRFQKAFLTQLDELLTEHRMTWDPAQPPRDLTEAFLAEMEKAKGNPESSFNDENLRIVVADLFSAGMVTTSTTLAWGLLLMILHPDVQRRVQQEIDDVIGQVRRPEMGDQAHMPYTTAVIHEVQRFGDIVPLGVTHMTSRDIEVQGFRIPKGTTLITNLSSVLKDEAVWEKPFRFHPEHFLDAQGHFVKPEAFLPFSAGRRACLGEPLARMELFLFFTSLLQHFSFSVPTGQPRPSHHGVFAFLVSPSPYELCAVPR
Excerpt: This kit includes the use of a fluorescent P450 substrate (AMMC or 3-[2-(N,N-diethyl-N-methylamino)ethyl]-7-methoxy-4-methylcoumarin) and recombinant human P450.

[4] = target: human norepinephrine transporter (Homo sapiens, UniProt P23975); test: Inhibition of [3H]NE transport into HEK-293 cells expressing the human transporter
human norepinephrine transporter, sequence (P23975 whole entry): as the sequence (P23975 whole entry) above

[5] = test system: rat 5-HT, NE and DA transport, synaptosomal preparations; test: Rat brain synaptosomal transport: rank order of potency; assay type: biochemical; settings: from Ki values; S = 5HT, N = NE, D = DA
Method: (§4) The dissected tissues were separately homogenized in 20 volumes (cortical) or 40 volumes (striatal) of ice-cold, oxygenated HEPES buffer 0.32 M sucrose containing 11 mM glucose (pH 7.4) in a glass Potter-Elvehjem homogenizer with Teflon® pestle (8 strokes, 900 rpm). The homogenates were centrifuged at 1,000×g for 10 minutes. The resulting supernatant was decanted and further centrifuged at 20,000×g for 20 minutes at 4° C. […] The synaptosomal protein concentration was determined by using the BCA assay (Pierce Biotechnology Inc, Rockford, Ill.), according to the manufacturer's instructions. Synaptosomal protein (1.0-2.5 mg) was suspended in 1 mL oxygenated incubation buffer as defined above. Test amine compound was pre-incubated with the synaptosomal preparation for 30 minutes at 37° C. in a shaking water bath (80 oscillations/minute).

[6] = target: T5, rat norepinephrine transport, synaptosomal preparations (Rattus norvegicus, UniProt Q63380); test: Inhibition of [3H]NE reuptake in rat brain synaptosomes (occipital cortex); assay type: biochemical
T5 construct: from tissue; host or cells: rat occipital cortex synaptosomes (male Sprague-Dawley)
T5 sequence (Q63380 1-617): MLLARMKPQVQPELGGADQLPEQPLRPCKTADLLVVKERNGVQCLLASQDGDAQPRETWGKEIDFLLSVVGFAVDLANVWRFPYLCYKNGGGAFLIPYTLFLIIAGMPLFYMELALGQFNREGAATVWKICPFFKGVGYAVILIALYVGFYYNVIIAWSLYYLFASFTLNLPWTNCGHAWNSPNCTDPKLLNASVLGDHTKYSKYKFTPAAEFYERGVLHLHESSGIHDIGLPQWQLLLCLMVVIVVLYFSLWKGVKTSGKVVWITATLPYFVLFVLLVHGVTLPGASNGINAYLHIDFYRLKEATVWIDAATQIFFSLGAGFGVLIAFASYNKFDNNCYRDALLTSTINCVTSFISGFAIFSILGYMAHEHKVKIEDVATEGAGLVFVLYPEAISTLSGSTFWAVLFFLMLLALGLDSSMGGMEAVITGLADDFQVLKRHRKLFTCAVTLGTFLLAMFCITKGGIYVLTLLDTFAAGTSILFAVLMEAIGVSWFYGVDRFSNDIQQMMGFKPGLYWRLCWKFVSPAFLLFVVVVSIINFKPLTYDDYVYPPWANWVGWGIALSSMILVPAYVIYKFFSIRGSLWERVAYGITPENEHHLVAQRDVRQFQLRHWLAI
Method: as §4

[7] = target: human serotonin transporter (Homo sapiens, UniProt P31645); test: Inhibition of [3H]5-HT transport into HEK-293 cells expressing the human transporter
[8] = target: T6, rat dopamine transporter, synaptosomal preparations (Rattus norvegicus, UniProt P23977); test: Inhibition of [3H]DA reuptake in rat brain synaptosomes (striatum); assay type: biochemical
T6 construct: and striatal tissues for transport of dopamine; from tissue; host or cells: rat striatum synaptosomes (male Sprague-Dawley)
Method: as §4

[9] = target: T7, rat serotonin transporter, synaptosomal preparations (Rattus norvegicus, UniProt P31652); test: Inhibition of [3H]5-HT reuptake in rat brain synaptosomes (frontal cortex); assay type: biochemical
T7 construct: from tissue; host or cells: rat frontal cortex synaptosomes (male Sprague-Dawley)
T7 sequence (P31652 whole entry): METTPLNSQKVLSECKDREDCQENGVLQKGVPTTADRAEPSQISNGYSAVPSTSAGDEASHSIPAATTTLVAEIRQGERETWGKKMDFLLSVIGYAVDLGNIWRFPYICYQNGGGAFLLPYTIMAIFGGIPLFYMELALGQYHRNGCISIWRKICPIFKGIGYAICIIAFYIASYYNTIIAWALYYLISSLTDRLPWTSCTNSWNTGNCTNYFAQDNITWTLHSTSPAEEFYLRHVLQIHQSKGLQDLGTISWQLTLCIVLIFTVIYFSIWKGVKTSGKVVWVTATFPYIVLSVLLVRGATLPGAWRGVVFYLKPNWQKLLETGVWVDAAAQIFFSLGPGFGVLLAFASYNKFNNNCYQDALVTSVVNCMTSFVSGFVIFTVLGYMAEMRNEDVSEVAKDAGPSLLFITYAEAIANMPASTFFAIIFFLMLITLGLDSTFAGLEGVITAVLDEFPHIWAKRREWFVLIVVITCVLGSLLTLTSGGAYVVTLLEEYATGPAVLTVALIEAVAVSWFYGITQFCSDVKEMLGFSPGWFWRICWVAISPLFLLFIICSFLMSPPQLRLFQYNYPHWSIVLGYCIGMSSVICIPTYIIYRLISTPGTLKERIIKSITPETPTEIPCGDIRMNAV
Method: as §4

[10] = recombinant human P450, AMMC substrate, read-out: Mean CYP2D6 (IC50)
[11] = Geometric Mean ± SEM, HCl salts, read-out: Equilibrium Dissociation Constant (KD) for Transporter Binding, hDAT (D)
[12] = Geometric Mean ± SEM, HCl salts, read-out: Equilibrium Dissociation Constant (KD) for Transporter Binding, hSERT (S)

| SMILES | Immobility in forced swim test vs saline (Male Sprague-Dawley rats) | Swimming in forced swim test vs saline (Male Sprague-Dawley rats) | Antidepressant activity in forced swim test compared with imipramine (15 mg/kg IP) (Male Sprague-Dawley rats) | IC50 (hERG) [nM] | Blocking of hERG channel compared with PRC200-SS (hERG) | Potency (rank-order of potency of binding; S = hSERT, N = hNET, D = hDAT) (hSERT, hNET, hDAT) | Potency Range (difference between most potent and least potent binding) (hSERT, hNET, hDAT) [fold] | IC50 (CYP2D6; [10]) [nM] | Kd [1, 11] [nM] | Kd [2, 12] [nM] | IC50 (CYP2D6) [nM] | also measured |
| --- | --- | --- | --- | --- | --- | --- | --- | --- | --- | --- | --- | --- |
| CNC[C@H](c1ccc2ccccc2c1)[C@H](F)c1ccccc1 [MCJ001-F-SS, (2S,3S)-3-fluoro-N-methyl-2-(naphthalen-2-yl)-3-phenylpropan-1-amine] | statistically (P<0.04) less immobility | statistically (P<0.04) more swimming behavior | antidepressant activity that was similar to that observed in rats treated with the positive control | 51800 | weaker than PRC200-SS at blocking this channel | S > N > D | 29 | 60 |  |  |  | Kd [1]: 23.5 ± 0.9 nM; Binding at hDAT compared to PRC200-SS ([1]; in words): Enhanced binding to hDAT; Kd [2]: 0.82 ± 0.09 nM; Binding at hSERT compared to PRC200-SS ([2]; in words): greater binding at hSERT; Kd [3]: 1.3 ± 0.2 nM |
| CNC[C@@H](c1ccc2ccccc2c1)[C@H](N)c1ccccc1 [MCJ001-NH2-SR, (2R,3S)-N1-methyl-2-(naphthalen-2-yl)-3-phenylpropane-1,3-diamine] |  |  |  |  |  | N > S > D | 1.6 |  | 260 ± 20 | 180 ± 10 | 4100 | Kd ([3]; Geometric Mean ± SEM, HCl salts, read-out: Equilibrium Dissociation Constant (KD) for Transporter Binding, hNET (N)): 166 ± 8 nM |
| CNC[C@H](c1ccc2ccccc2c1)[C@H](OC(C)=O)c1ccccc1 [MCJ001-OAc-SS, (1S,2S)-3-(methylamino)-2-(naphthalen-2-yl)-1-phenylpropyl acetate] | statistically (P<0.04) less immobility | statistically (P<0.04) more swimming behavior | antidepressant activity that was similar to that observed in rats treated with the positive control |  | weaker than PRC200-SS at blocking this channel | N > S > D | 3.4 | 600 | 150 ± 20 | 55 ± 6 |  | IC50 (hERG; read-out: hERG (IC50), Rb+ efflux, eight doses in duplicate): 78800 nM; Potency of inhibition at CYP2D6, in words (CYP2D6; compared with PRC200-SS): markedly reduced the potency of inhibition at CYP2D6 |
| CNC[C@H](c1ccc2ccccc2c1)[C@H](O)c1ccccc1 [PRC200-SS, (1S,2S)-3-(methylamino)-2-(naphthalen-2-yl)-1-phenylpropan-1-ol, reference compound] | statistically (P<0.04) less immobility | statistically (P<0.04) more swimming behavior | antidepressant activity that was similar to that observed in rats treated with the positive control | 32600 |  | N > S > D | 45 |  |  |  | 80 | Ki [4]: 6 ± 2 nM; Potency (rank order, transport into rat brain synaptosomal preparations) [5]: S > N > D; Ki [6]: 6 ± 2 nM; Ki [7]: 2.8 ± 0.4 nM; Ki [8]: 61 ± 4 nM; Ki [9]: 2.12 ± 0.9 nM; Potency (rank-order of potency of binding; S = hSERT, N = hNET, D = hDAT) (hSERT, hNET, hDAT; listed as PRC200): N>S>D |
